Measured values taken from the NIST ThermoML archive (doi:10.1016/j.jct.2013.03.007).
Numbers after ± are expanded uncertainties.

Conditions: 101.33 kPa, Liquid, Vibrating tube method

| Structure (SMILES) | mass density (288.2 K) [kg/m3] | mass density (293.2 K) [kg/m3] | mass density (298.2 K) [kg/m3] | mass density (303.2 K) [kg/m3] | mass density (308.2 K) [kg/m3] | mass density (313.2 K) [kg/m3] | mass density (318.2 K) [kg/m3] | mass density (323.2 K) [kg/m3] | mass density (328.2 K) [kg/m3] | mass density (333.2 K) [kg/m3] | mass density (338.2 K) [kg/m3] | mass density (343.2 K) [kg/m3] | mass density (348.2 K) [kg/m3] | mass density (353.2 K) [kg/m3] | mass density (358.2 K) [kg/m3] |
| --- | --- | --- | --- | --- | --- | --- | --- | --- | --- | --- | --- | --- | --- | --- | --- |
| CCCCn1cc[n+](C)c1.F[P-](F)(F)(F)(F)F [1-butyl-3-methylimidazolium hexafluorophosphate] | 1376.4 ± 0.6 | 1372.1 ± 0.6 | 1367.8 ± 0.6 | 1363.6 ± 0.5 | 1359.5 ± 0.5 | 1355.6 ± 0.5 | 1351.3 ± 0.5 | 1347.2 ± 0.5 | 1343.1 ± 0.5 | 1339 ± 0.5 | 1335 ± 0.5 | 1330.9 ± 0.5 | 1326.8 ± 0.5 | 1322.8 ± 0.5 |  |
| CCCCn1cc[n+](C)c1.F[B-](F)(F)F [1-butyl-3-methylimidazolium tetrafluoroborate] |  | 1204.1 ± 1.3 | 1201 ± 1.3 | 1197.5 ± 1.3 | 1194 ± 1.3 | 1190.4 ± 1.3 | 1186.9 ± 1.2 | 1183.4 ± 1.2 | 1180 ± 1.2 | 1176.5 ± 1.2 | 1173 ± 1.2 | 1169.6 ± 1.2 | 1166.1 ± 1.2 | 1162.7 ± 1.2 | 1159.3 ± 1.2 |
